In EP1457483A1, “Cationic lipids with serine backbone” (Ruhr-Universität Bochum, priority 2003, dated 2004):

Tested on: COS-7 cells
Assay: Automated lipofection screening: GFP-luciferase reporter gene transfer (luciferase activity per protein content)
Assay type: cell-based, African green monkey
Conditions: for Maximum transfection efficiency, MW (mean value), Helper lipid: DOPE / Maximum transfection efficiency, MW (mean value), Helper lipid: CHOL / Maximum transfection efficiency, MW (mean value), Helper lipid: without: pEGFPLuc plasmid, point is thousands separator; for Maximum transfection efficiency, MW (mean value), Helper lipid: DOPE: cationic/helper lipid 1:0.5 with DOPE; for Maximum transfection efficiency, MW (mean value), Helper lipid: DOPE / Maximum transfection efficiency, MW (mean value), Helper lipid: CHOL: at the LDR giving the maximum; for Maximum transfection efficiency, MW (mean value), Helper lipid: CHOL: cationic/helper lipid 1:0.5 with cholesterol; for Maximum transfection efficiency, MW (mean value), Helper lipid: without: no helper lipid, at the LDR (1:1-15:1) giving the maximum; for times higher activity in only one of the helper lipid combinations: best combination against the other combinations
Protocol: Screening the combinatorial lipid library for lipofection properties: Goal of this first step was to compare transfection efficiency of these structurally related cationic lipids with systematically modified hydrocarbon chain compositions for the development of suitable lipofection reagents and protocols and to study the relationship between structure and transfection efficiency of this new class of cationic lipids for gene transfer. All lipids (MS-1 to MS-50, table 1) were tested using a standard protocol: From each lipid, twenty four different lipoplexes were formed containing either no helper lipid or the helper lipids DOPE and CHOL at molar amounts (1:0.5), respectively, using eight different lipid:DNA-charge ratios (LDR) from 1:1 - 15:1, resulting in a lipofection profile for each lipid. The COS-7 cell-line was used for this lipofection study since COS-7 is easy to transfect and differences between the lipids are easy to identify.
Cell culture: SV40 transformed African green monkey kidney cell line COS-7 (ATCC CRL-1651) was routinely passaged in DMEM (GIBCO BRL, Karlsruhe, Germany), respectively, supplemented with 1% L-glutamin solution (100x), 1% Penicillin/Streptomycin solution (100x) (GIBCO BRL, Karlsruhe, Germany), and 10% FCS (BioWhittaker, Verviers, Belgium) at 37°C with 5% CO2 in humidified atmosphere. For the screening cells were maintained in 96-well culture plates (Greiner, Frickenhausen, Germany) in 100 µl DMEM, 10 % FCS, 1 % Penicillin-streptomycin in a humidified atmosphere at 37 °C/5 % CO2. 24 h prior to transfection, the cells were seeded into the microtiter plate at 10,000 cells per well to reach a confluency of 50 % at the time of transfection. Dendritic cells: Dendritic cells (DC) were derived from highly purified circulating CD14(+) monocytes: In a first step, peripheral blood mononuclear leukocytes (PBL) from healthy control persons were isolated by Ficoll-Paque (Pharmacia Biotech AB, Uppsala, Sweden) density centrifugation. The following immunomagnetic purification of the monocytes from PBL was performed using CD14 Microbeads and MiniMACS high gradient magnetic separation columns (Miltenyi Biotech, Bergisch Gladbach, Germany) according to manufacturer's instructions. Isolated monocytes (5 x 10^5/well) were cultured in RPMI supplemented with 10 % FCS, or serum-free Macrophage-SFM medium (GIBCO BRL, Karlsruhe, Germany) supplemented with human recombinant GM-CSF (0.05µg/ml) and IL-4 (0.025µg/ml) (PromoCell, Heidelberg, Germany) in 6-well plates. Aliquots of the cells were reanalyzed by FACS with anti-CD14 mAbs (Pharmingen, San Diego, CA). After 5-6 days non-adherent cells were collected and purity of DCs was determined by FACS analysis using a FACSort flow cytometer (Becton Dickinson, Mountain View, CA) and the CellQuest software for data processing as recently described (Jantscheff, P. et al., J. Immunol. Methods 163(1):91-7 (1993)).

Structure (SMILES) | Maximum transfection efficiency, MW (mean value), Helper lipid: DOPE [RLU] | Maximum transfection efficiency, MW (mean value), Helper lipid: CHOL [RLU] | Maximum transfection efficiency, MW (mean value), Helper lipid: without [RLU] | times higher activity in only one of the helper lipid combinations
CCCCCCCCCCCCCCN(CCCCCCCCCCCCCC)[C@@H](CO)C(=O)NCCN [compound 2] | 73.117 | 297.074 | 362.300 | 
CCCCCCCC/C=C\CCCCCCCCN(CCCCCCCC/C=C\CCCCCCCC)[C@@H](CO)C(=O)NCCCN [compound 10] | 92.769 | 28.835 | 13.461 | 
CCCCCCCCCCCCCCCC[N+](C)(CCCCCCCCCCCCCCCC)[C@@H](CO)C(=O)NCCCN [MS-33] |  |  |  | 2.5 - 11.5 times
CCCCCCCCCCCCCCCCCC[N+](C)(CCCCCCCCCCCCCCCCCC)[C@@H](CO)C(=O)NCCN [compound 29] | 24.095 | 137.404 | 43.875 | 
CCCCCCCC/C=C\CCCCCCCC[N+](C)(CCCCCCCC/C=C\CCCCCCCC)[C@@H](CO)C(=O)NCCCCCCN [compound 50] | 39.590 | 70.812 | 17.315 | 
CCCCCCCCCCCCN(CCCCCCCCCCCC)[C@@H](CO)C(=O)NCCCN [compound 6] | 6.392 | 583 | 944 | 
CCCCCCCCCCCCCCCCCCN(CCCCCCCCCCCCCCCCCC)[C@@H](CO)C(=O)NCCCCN [compound 14] | 11.715 | 42.270 | 1.956 | 
CCCCCCCCCCCCCCCC[N+](C)(CCCCCCCCCCCCCCCC)[C@@H](CO)C(=O)NCCN [compound 28] | 190.444 | 461.747 | 171.272 | 
CCCCCCCCCCCCCCCC[N+](C)(CCCCCCCCCCCCCCCC)[C@@H](CO)C(=O)NCCN [MS-28] |  |  |  | 2.5 - 11.5 times
CCCCCCCCCCCCCCCCCC[N+](C)(CCCCCCCCCCCCCCCCCC)[C@@H](CO)C(=O)NCCCN [compound 34] | 5.085 | 42.068 | 21.056 | 
CCCCCCCCCCCC[N+](C)(CCCCCCCCCCCC)[C@@H](CO)C(=O)NCCCCCCN [compound 46] | 560 | 766 | 956 | 
CCCCCCCCCCCCCCCCCCN(CCCCCCCCCCCCCCCCCC)[C@@H](CO)C(=O)NCCN [compound 4] | 4.695 | 131.981 | 2.827 | 
CCCCCCCC/C=C\CCCCCCCCN(CCCCCCCC/C=C\CCCCCCCC)[C@@H](CO)C(=O)NCCCCCCN [compound 25] | 44.451 | 12.225 | 23.710 | 
CCCCCCCCCCCCCCCC[N+](C)(CCCCCCCCCCCCCCCC)[C@@H](CO)C(=O)NCCCCN [compound 38] | 71.641 | 156.698 | 30.747 | 
CCCCCCCCCCCCCCCCCC[N+](C)(CCCCCCCCCCCCCCCCCC)[C@@H](CO)C(=O)NCCCCCN [compound 44] | 1.712 | 28.104 | 3.542 | 
CCCCCCCCCCCCCCN(CCCCCCCCCCCCCC)[C@@H](CO)C(=O)NCCCCN [compound 12] | 167.970 | 274.483 | 440.931 | 
CCCCCCCCCCCCCCCCCC[N+](C)(CCCCCCCCCCCCCCCCCC)[C@@H](CO)C(=O)NCCN [MS-29] |  |  |  | 2.5 - 11.5 times
CCCCCCCC/C=C\CCCCCCCCN(CCCCCCCC/C=C\CCCCCCCC)[C@@H](CO)C(=O)NCCN [compound 5] | 22.324 | 7.344 | 7.395 | 
CCCCCCCCCCCCCC[N+](C)(CCCCCCCCCCCCCC)[C@@H](CO)C(=O)NCCCCN [compound 37] | 63.765 | 148.560 | 1.972 | 
CCCCCCCCCCCCN(CCCCCCCCCCCC)[C@@H](CO)C(=O)NCCCCN [compound 11] | 2.621 | 327 | 293 | 
CCCCCCCCCCCCCCCCN(CCCCCCCCCCCCCCCC)[C@@H](CO)C(=O)NCCCCCN [compound 18] | 26.400 | 42.592 | 22.150 | 
CCCCCCCC/C=C\CCCCCCCC[N+](C)(CCCCCCCC/C=C\CCCCCCCC)[C@@H](CO)C(=O)NCCN [compound 30] | 57.187 | 251.177 | 99.415 | 
CCCCCCCCCCCCCCN(CCCCCCCCCCCCCC)[C@@H](CO)C(=O)NCCCCCCN [compound 22] | 164.165 | 241.264 | 237.631 | 
CCCCCCCCCCCCCC[N+](C)(CCCCCCCCCCCCCC)[C@@H](CO)C(=O)NCCCCCN [compound 42] | 72.349 | 181.719 | 832 | 
CCCCCCCCCCCCN(CCCCCCCCCCCC)[C@@H](CO)C(=O)NCCCCCN [compound 16] | 49.071 | 45.849 | 442 | 
CCCCCCCCCCCCN(CCCCCCCCCCCC)[C@@H](CO)C(=O)NCCCCCCN [compound 21] | 308.849 | 190.171 | 118.131 | 
CCCCCCCCCCCCCCCCN(CCCCCCCCCCCCCCCC)[C@@H](CO)C(=O)NCCCCCCN [compound 23] | 27.118 | 16.398 | 14.969 | 
